The record followed here is paper PMC8905313, “Overexpression of ABCB1 Associated With the Resistance to the KRAS-G12C Specific Inhibitor ARS-1620 in Cancer Cells” (Frontiers in Pharmacology, 2022).

As a reminder, the EC50 is the concentration that produces a half-maximal response. High values mean a less potent agent, low ones a more potent agent.

This assay concerns the target T1, ABCB1 (Homo sapiens, UniProt P08183).
T1 construct: ABCB1 membrane vesicles
Put plainly: vanadate-sensitive ATPase stimulation in ABCB1 membrane vesicles; supported by HPLC efflux and [3H]-paclitaxel accumulation in KB-C2 cells. Format: biochemical.

T1 sequence (P08183 whole entry): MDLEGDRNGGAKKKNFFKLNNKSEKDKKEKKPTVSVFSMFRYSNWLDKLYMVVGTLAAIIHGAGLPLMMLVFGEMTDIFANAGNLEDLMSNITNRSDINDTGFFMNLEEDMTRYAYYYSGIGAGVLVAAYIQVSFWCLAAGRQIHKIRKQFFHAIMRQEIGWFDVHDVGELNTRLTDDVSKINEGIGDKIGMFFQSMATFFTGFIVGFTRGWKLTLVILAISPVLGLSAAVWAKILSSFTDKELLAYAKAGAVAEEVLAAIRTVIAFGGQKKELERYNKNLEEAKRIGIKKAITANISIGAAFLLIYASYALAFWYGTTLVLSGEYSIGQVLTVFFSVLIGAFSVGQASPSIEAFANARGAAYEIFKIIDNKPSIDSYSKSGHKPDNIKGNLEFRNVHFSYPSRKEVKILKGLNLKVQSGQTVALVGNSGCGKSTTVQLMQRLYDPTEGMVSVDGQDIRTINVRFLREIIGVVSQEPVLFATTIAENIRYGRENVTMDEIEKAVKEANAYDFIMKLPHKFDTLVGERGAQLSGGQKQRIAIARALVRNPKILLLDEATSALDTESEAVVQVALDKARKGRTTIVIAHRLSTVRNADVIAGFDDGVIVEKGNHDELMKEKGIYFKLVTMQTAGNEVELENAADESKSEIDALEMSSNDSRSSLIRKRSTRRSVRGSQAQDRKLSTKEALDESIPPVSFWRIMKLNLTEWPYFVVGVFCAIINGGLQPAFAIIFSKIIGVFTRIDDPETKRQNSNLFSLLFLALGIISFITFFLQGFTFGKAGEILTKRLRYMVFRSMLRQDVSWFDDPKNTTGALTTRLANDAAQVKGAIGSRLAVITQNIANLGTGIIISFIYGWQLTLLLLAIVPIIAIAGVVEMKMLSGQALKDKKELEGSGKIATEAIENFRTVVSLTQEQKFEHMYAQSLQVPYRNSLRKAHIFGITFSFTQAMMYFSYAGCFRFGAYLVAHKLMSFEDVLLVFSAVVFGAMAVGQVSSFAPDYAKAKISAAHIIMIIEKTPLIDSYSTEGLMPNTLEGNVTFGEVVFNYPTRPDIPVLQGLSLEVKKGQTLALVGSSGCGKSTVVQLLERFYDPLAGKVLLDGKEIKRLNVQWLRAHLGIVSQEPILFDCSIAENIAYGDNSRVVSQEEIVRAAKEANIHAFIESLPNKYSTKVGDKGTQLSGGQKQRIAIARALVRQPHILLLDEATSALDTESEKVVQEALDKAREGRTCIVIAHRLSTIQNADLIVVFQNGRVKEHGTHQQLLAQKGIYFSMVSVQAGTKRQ

Regarding `C=CC(=O)N1CCN(c2ncnc3c(F)c(-c4c(O)cccc4F)c(Cl)cc23)CC1` [ARS-1620], the EC50 stood at 14.8 µM.
